We go through eleven molecules from PMC6269799, “Synthesis and Trypanocidal Activity of Novel 2,4,5-Triaryl-N-Hydroxylimidazole Derivatives” (Molecules, 2013).

The subject of data set [1] is bloodstream trypomastigote forms of T. cruzi (Y strain). The data set can be described thus: Activity against bloodstream trypomastigote forms. In kind it is cell-based, Trypanosoma cruzi. To be noted: in vitro, mean ± standard deviation of at least four separate experiments, read-out: IC50 (trypanocidal activity). On the procedure: The trypanocide profiles of the new TAI derivatives 3–12 was evaluated in vitro using bloodstream trypomastigote forms of T. cruzi (Y strain) isolated from infected Swiss mice and are summarised in Table 1.
Stock solutions of NAH derivatives were prepared in DMSO. Bloodstream trypomastigote forms of T. cruzi (Y strain) were isolated from infected Swiss mice and re-suspended with Dulbecco’s modified Eagle medium plus 10% foetal calf serum (DMES) to a parasite concentration of 10 × 10^6 cells/mL. This suspension (100 μL) was added to the same volume of each NAH derivative, previously prepared at twice the desired concentrations in DMES. Stock solutions of the NAH derivatives were prepared in dimethylsulfoxide (DMSO), and they were assayed in the range of 0.5 to 2000 μg/mL. The final concentration of DMSO never exceeded 0.5%, thus, it had no deleterious effect on the parasites.

The nature of data set [2]: Cytotoxic effect on murine macrophages (Alamar Blue assay). In kind it is cell-based. To be noted: mouse, J774 macrophage cell line, murine macrophages J774, 21 h after the treatment. On the procedure: (§1) Cellular viability in the presence and absence of TAI derivatives (4–6) was determined using Alamar Blue assay (Invitrogen). The macrophage cell line J774 was seeded into black clear flat-bottomed 96-well plates in a density of […]. After 1 h of incubation in controlled atmosphere (5% CO2, 37 °C),cells received fresh medium with or without Tween 20 (3%), DMSO (0.5%) and the TAI compounds (1 to 100 μM) in a quadruplicate assay. After 21 h of incubation in the previous conditions, 20 μL of Alamar Blue solution was added to each well and after 3 h, fluorescence was measured using SpectraMax M5/M5^e microplate reader (Molecular Devices; λexc = 555 nm, λem = 585 nm).

Data set [3] relates to macrophage cell line J774. The description is as above. In kind it is cell-based. How it is done:
as §1

“And” between values parts separate entries of the source, which are not always exact repeats. Equal values may be shown once. Read-outs that look alike come from different tables or passages of the source.

In the case of `Cn1c([N+](=O)[O-])cnc1-c1c(-c2ccccc2)nc(-c2ccc(O)cc2)n1O` [Compound 9, 2'-(4-Hydroxyphenyl)-1-methyl-5-nitro-5'-phenyl-1H,3'H-2,4'-biimidazol-3'-ol], the IC50 in data set [1] (Trypanosoma cruzi) came out at 294 ± 28 µM.

Consider `Cn1c([N+](=O)[O-])cnc1-c1c(-c2ccccc2)nc(-c2ccc(O)c(O)c2)n1O` [Compound 10, 4-(3'-Hydroxy-1-methyl-5-nitro-5'-phenyl-1H,3'H-2,4'-biimidazol-2'-yl)benzene-1,2-diol], for which the IC50 in data set [1] (Trypanosoma cruzi) was 360 ± 24.7 µM.

With `Cn1c([N+](=O)[O-])cnc1-c1c(-c2ccccc2)nc(-c2ccccc2)n1O` [Compound 3, 1-Methyl-5-nitro-2',5'-diphenyl-1H,3'H-2,4'-biimidazol-3'-ol], the melting point lay within 217 to 218 °C. Further, the concentration for half-maximal inhibition (IC50) in data set [1] (Trypanosoma cruzi) turned out to be 108 ± 5.65 µM.

Turning to `Cn1c([N+](=O)[O-])cnc1-c1c(-c2ccccc2)nc(-c2ccc(Cl)cc2)n1O` [Compound 5, 2'-(4-Chlorophenyl)-1-methyl-5-nitro-5'-phenyl-1H,3'H-2,4'-biimidazol-3'-ol], the melting point lay in the range of 249 to 250 °C. In addition, the 50% inhibitory concentration (IC50) in data set [1] (Trypanosoma cruzi) amounted to 34.6 ± 2.43 µM. In data set [2], this molecule came in with a viability at 21 h, 1 µM of 95.7%; a viability at 21 h, 10 µM of 97.6%; a viability at 21 h, 100 µM of 93.1%.

Take `Cn1c([N+](=O)[O-])cnc1-c1c(-c2ccccc2)nc(-c2ccc([N+](=O)[O-])cc2)n1O` [Compound 7, 1-Methyl-5-nitro-2'-(4-nitrophenyl)-5'-phenyl-1H,3'H-2,4'-biimidazol-3'-ol]: the melting point lay within 361 to 362 °C. Besides, in data set [1] (Trypanosoma cruzi), the IC50 came to 242 ± 37.6 µM.

On to `O=C(Cn1ccnc1[N+](=O)[O-])NCc1ccccc1` [Bzn, benznidazole, reference compound], for which, in data set [1] (Trypanosoma cruzi), the IC50 came to 10.8 ± 0.4 µM.

Consider `COc1ccc(-c2nc(-c3ccccc3)c(-c3ncc([N+](=O)[O-])n3C)n2O)cc1` [Compound 8, 2'-(4-Methoxyphenyl)-1-methyl-5-nitro-5'-phenyl-1H,3'H-2,4'-biimidazol-3'-ol], for which the melting point lay within 218 to 219 °C. Besides, in data set [1] (Trypanosoma cruzi), the IC50 came out at 192 ± 25.3 µM.

Consider `Cn1c([N+](=O)[O-])cnc1-c1c(-c2ccccc2)nc(-c2ccc(Br)cc2)n1O` [Compound 6, 2'-(4-Bromophenyl)-1-methyl-5-nitro-5'-phenyl-1H,3'H-2,4'-biimidazol-3'-ol], for which, in data set [1] (Trypanosoma cruzi), the half-inhibitory concentration (IC50) stood at 23.9 ± 4.88 µM. Further, the “effect on cell viability (in words)” value in data set [3] (100 μM, murine macrophages) is given as “weakly reduced cell viability”. Also, the “cytotoxic effects (in words)” value in data set [3] (host cells (murine macrophages) at concentrations near the trypanocidal IC50) is reported as “did not present cytotoxic effects”. In data set [2], this molecule returned a viability at 21 h, 1 µM of 97.3%; a viability at 21 h, 10 µM of 97.6%; a viability at 21 h, 100 µM of 78.7%.

As for `Cn1c([N+](=O)[O-])cnc1-c1c(-c2ccccc2)nc(-c2ccc(F)cc2)n1O` [Compound 4, 2'-(4-Fluorophenyl)-1-methyl-5-nitro-5'-phenyl-1H,3'H-2,4'-biimidazol-3'-ol], in data set [1] (Trypanosoma cruzi), the IC50 is 67.8 ± 8.39 µM. In addition, in data set [2], the viability at 21 h, 1 µM is 94.2%; the viability at 21 h, 10 µM turned out to be 98.9%; the viability at 21 h, 100 µM is 97.6%.

For `COc1ccc(-c2nc(-c3ccccc3)c(-c3ncc([N+](=O)[O-])n3C)n2O)cc1O` [Compound 11, 2'-(3-Hydroxy-4-methoxyphenyl)-1-methyl-5-nitro-5'-phenyl-1H,3'H-2,4'-biimidazol-3'-ol], the melting point was 213 to 214 °C and 213 °C. In data set [1] (Trypanosoma cruzi), the IC50 amounted to 200 ± 2.02 µM.

Turning to “2'-(3-Hydroxy-4-methoxy-5-nitrophenyl)-1-methyl-5-nitro-5'-phenyl-1H,3'H-2,4'-biimidazol-3'-ol [Compound 12]”, the half-inhibitory concentration (IC50) in data set [1] stood at 242 ± 7.54 µM.
